Measurements published in PMC11845477, “Exploring the principles behind antibiotics with limited resistance” (Nature Communications, 2025).

Test system: P. aeruginosa ATCC BAA-3107 (SEN) and P. aeruginosa LESB58 (MDR)
Assay: Adaptive laboratory evolution (ALE), relative MIC of evolved lines
Format: cell-based, Pseudomonas aeruginosa
Conditions: for Relative MIC (log10): PA-SEN (Pseudomonas aeruginosa ATCC BAA 3107)
Description: Using the same set of bacterial strains, we initiated adaptive laboratory evolution with the aim to maximize the level of antibiotic resistance in the populations achieved during a longer, but fixed time period.
An established protocol for adaptive laboratory evolution[46],[73] was followed to propagate populations with the highest resistance levels. Starting with an antibiotic concentration that caused approximately 50% growth inhibition, ten parallel populations for each antibiotic-ancestor strain combination were grown for 72 hours at 37 °C with continuous shaking (300 RPM). MHB broth medium was used unless stated otherwise. After each incubation, 20 µl of each culture was transferred to four new wells containing fresh medium with increasing antibiotic concentrations (0.5×, 1×, 1.5×, and 2.5× the previous concentration) in a chessboard layout to monitor potential cross-contamination. Growth was monitored by measuring OD600 using a Biotek Synergy 2 microplate reader, and only populations grown in the highest drug concentration with an OD600 > 0.2 were transferred further.
A robotic liquid handling system was used to automatically prepare a 11 to 16-step serial dilution in 384-well microtiter plates (Greiner). A final concentration of 5 × 10^5 bacterial cells per mL were inoculated into each well containing 60 µL MHB medium. Bacterial cultures were incubated at 37 °C with continuous shaking (Infors shaker, 900 rpm with 3 mm throw) for 18 hours (2 replicates from each). Cell growth was monitored by measuring the optical density (OD600 values, using Biotek Synergy microplate reader). MIC was defined as the antibiotic concentration of complete growth inhibition (i.e., OD600 < 0.05). Relative MIC was calculated as follows:1 relativeMIC=MICevolved/MICancestor […]
Supplementary Figure 4. Resistance levels following adaptive laboratory evolution across bacterial strains. The level of resistance was measured as the fold change in relative MIC between evolved and ancestral strains after ~60 days of adaptive laboratory evolution. Data are grouped by bacterial strain (A. baumannii (AB), E. coli (EC), K. pneumoniae (KP), and P. aeruginosa (PA)) and categorized as either multidrug-resistant (MDR) or sensitive (SEN). Each data point represents a laboratory evolved line, and boxplots show the median, first and third quartiles, with whiskers indicating the 5th and 95th percentiles.
Statistical analysis was performed using two-sided Dunn’s post-hoc test with Benjamini-Hochberg correction for multiple comparisons (****/ ***/ **/ * indicates p < 0.0001/ 0.001/ 0.01/ 0.05). For detailed information on antibiotic and bacterial species, see Supplementary Table 1. For mode of action groups, refer to Table 1. Source data are provided as a Source Data file.

[1] = evolved line 1 adapted to the named antibiotic
[2] = evolved line 5 adapted to the named antibiotic
[3] = evolved line 7 adapted to the named antibiotic
[4] = evolved line 9 adapted to the named antibiotic
[5] = Pseudomonas aeruginosa ATCC BAA 3107 (PA-SEN), evolved line 1
[6] = Pseudomonas aeruginosa ATCC BAA 3107 (PA-SEN), evolved line 2
[7] = Pseudomonas aeruginosa ATCC BAA 3107 (PA-SEN), evolved line 3
[8] = Pseudomonas aeruginosa ATCC BAA 3107 (PA-SEN), evolved line 4
[9] = Pseudomonas aeruginosa ATCC BAA 3107 (PA-SEN), evolved line 5
[10] = Pseudomonas aeruginosa ATCC BAA 3107 (PA-SEN), evolved line 6
[11] = Pseudomonas aeruginosa ATCC BAA 3107 (PA-SEN), evolved line 7
[12] = Pseudomonas aeruginosa ATCC BAA 3107 (PA-SEN), evolved line 8
[13] = Pseudomonas aeruginosa ATCC BAA 3107 (PA-SEN), evolved line 9
[14] = Pseudomonas aeruginosa ATCC BAA 3107 (PA-SEN), evolved line 10
[15] = evolved line 2 adapted to the named antibiotic
[16] = evolved line 10 adapted to the named antibiotic
[17] = PA-SEN, Pseudomonas aeruginosa ATCC BAA 3107, evolved line 1
[18] = PA-SEN, Pseudomonas aeruginosa ATCC BAA 3107, evolved line 1 versus ancestor
[19] = PA-SEN, Pseudomonas aeruginosa ATCC BAA 3107, evolved line 2
[20] = PA-SEN, Pseudomonas aeruginosa ATCC BAA 3107, evolved line 2 versus ancestor
[21] = PA-SEN, Pseudomonas aeruginosa ATCC BAA 3107, evolved line 4
[22] = PA-SEN, Pseudomonas aeruginosa ATCC BAA 3107, evolved line 4 versus ancestor
[23] = PA-SEN, Pseudomonas aeruginosa ATCC BAA 3107, evolved line 6
[24] = PA-SEN, Pseudomonas aeruginosa ATCC BAA 3107, evolved line 6 versus ancestor
[25] = PA-SEN, Pseudomonas aeruginosa ATCC BAA 3107, evolved line 8
[26] = PA-SEN, Pseudomonas aeruginosa ATCC BAA 3107, evolved line 8 versus ancestor
[27] = PA-SEN, Pseudomonas aeruginosa ATCC BAA 3107, evolved line 9
[28] = PA-SEN, Pseudomonas aeruginosa ATCC BAA 3107, evolved line 9 versus ancestor
[29] = PA-SEN, Pseudomonas aeruginosa ATCC BAA 3107, evolved line 10
[30] = PA-SEN, Pseudomonas aeruginosa ATCC BAA 3107, evolved line 10 versus ancestor

Q: Which results are given for `C[C@H]1c2cccc(O)c2C(=O)C2=C(O)[C@]3(O)C(=O)C(C(N)=O)=C(O)[C@@H](N(C)C)[C@@H]3[C@@H](O)[C@@H]21` [Doxycycline]?
A: Relative MIC (PA-SEN (ATCC BAA 3107), evolved line 1, MIC of evolved line / MIC of ancestor): 64; MIC of evolved line (PA-SEN (ATCC BAA 3107), evolved line 2): 256 µg/mL; Relative MIC (PA-SEN (ATCC BAA 3107), evolved line 2, MIC of evolved line / MIC of ancestor): 64; MIC of evolved line (PA-SEN (ATCC BAA 3107), evolved line 3): 256 µg/mL; Relative MIC (PA-SEN (ATCC BAA 3107), evolved line 3, MIC of evolved line / MIC of ancestor): 64; MIC of evolved line (PA-SEN (ATCC BAA 3107), evolved line 4): 256 µg/mL; Relative MIC (PA-SEN (ATCC BAA 3107), evolved line 4, MIC of evolved line / MIC of ancestor): 64; MIC of evolved line (PA-SEN (ATCC BAA 3107), evolved line 5): 256 µg/mL; Relative MIC (PA-SEN (ATCC BAA 3107), evolved line 5, MIC of evolved line / MIC of ancestor): 64; MIC of evolved line (PA-SEN (ATCC BAA 3107), evolved line 6): 256 µg/mL; Relative MIC (PA-SEN (ATCC BAA 3107), evolved line 6, MIC of evolved line / MIC of ancestor): 64; MIC of evolved line (PA-SEN (ATCC BAA 3107), evolved line 7): 256 µg/mL; Relative MIC (PA-SEN (ATCC BAA 3107), evolved line 7, MIC of evolved line / MIC of ancestor): 64; MIC of evolved line (PA-SEN (ATCC BAA 3107), evolved line 8): 256 µg/mL; Relative MIC (PA-SEN (ATCC BAA 3107), evolved line 8, MIC of evolved line / MIC of ancestor): 64; MIC of evolved line (PA-SEN (ATCC BAA 3107), evolved line 9): 256 µg/mL; Relative MIC (PA-SEN (ATCC BAA 3107), evolved line 9, MIC of evolved line / MIC of ancestor): 64; MIC of evolved line (PA-SEN (ATCC BAA 3107), evolved line 10): 256 µg/mL; Relative MIC (PA-SEN (ATCC BAA 3107), evolved line 10, MIC of evolved line / MIC of ancestor): 64; Relative MIC (log10) [1]: 1.806; Relative MIC (log10) (evolved line 3 adapted to the named antibiotic): 1.806; Relative MIC (log10) [2]: 1.806; Relative MIC (log10) [3]: 1.806; Relative MIC (log10) [4]: 1.806; MIC of evolved line (PA-SEN ATCC BAA 3107, evolved line 1): 256 µg/mL; Relative MIC [5]: 64; Relative MIC [6]: 64; Relative MIC [7]: 64; Relative MIC [8]: 64; Relative MIC [9]: 64; Relative MIC [10]: 64; Relative MIC [11]: 64; Relative MIC [12]: 64; Relative MIC [13]: 64; Relative MIC [14]: 64

Q: How did the “Relative MIC (log10)” value [15] turn out when `CN(C)[C@@H]1C(O)=C(C(N)=O)C(=O)[C@@]2(O)C(O)=C3C(=O)c4c(O)c(NC(=O)CN5CCCC5)cc(F)c4C[C@H]3C[C@@H]12` [Eravacycline] was run?
A: 1.505

Q: What about the “Relative MIC (log10)” value (evolved line 4 adapted to the named antibiotic) of the same compound?
A: 1.505

Q: And the “Relative MIC (log10)” value [2]?
A: 1.806

Q: And the “Relative MIC (log10)” value [3]?
A: 1.204

Q: And the “Relative MIC (log10)” value [16]?
A: 1.505

Q: What about the MIC of evolved line [17] of the same compound?
A: 128 µg/mL

Q: And the “Relative MIC” value [18]?
A: 32

Q: What about the MIC of evolved line [19] of the same compound?
A: 128 µg/mL

Q: And the “Relative MIC” value [20]?
A: 32

Q: And the MIC of evolved line (PA-SEN, Pseudomonas aeruginosa ATCC BAA 3107, evolved line 3)?
A: 256 µg/mL

Q: What about the “Relative MIC” value (PA-SEN, Pseudomonas aeruginosa ATCC BAA 3107, evolved line 3 versus ancestor) of the same compound?
A: 64

Q: What about the MIC of evolved line [21] of the same compound?
A: 128 µg/mL

Q: What about the “Relative MIC” value [22] of the same compound?
A: 32

Q: What about the MIC of evolved line (PA-SEN, Pseudomonas aeruginosa ATCC BAA 3107, evolved line 5) of the same compound?
A: 256 µg/mL

Q: And the “Relative MIC” value (PA-SEN, Pseudomonas aeruginosa ATCC BAA 3107, evolved line 5 versus ancestor)?
A: 64

Q: And the MIC of evolved line [23]?
A: 128 µg/mL

Q: And the “Relative MIC” value [24]?
A: 32

Q: And the MIC of evolved line (PA-SEN, Pseudomonas aeruginosa ATCC BAA 3107, evolved line 7)?
A: 64 µg/mL

Q: What about the “Relative MIC” value (PA-SEN, Pseudomonas aeruginosa ATCC BAA 3107, evolved line 7 versus ancestor) of the same compound?
A: 16

Q: And the MIC of evolved line [25]?
A: 64 µg/mL

Q: What about the “Relative MIC” value [26] of the same compound?
A: 16

Q: What about the MIC of evolved line [27] of the same compound?
A: 64 µg/mL

Q: And the “Relative MIC” value [28]?
A: 16

Q: What about the MIC of evolved line [29] of the same compound?
A: 128 µg/mL

Q: And the “Relative MIC” value [30]?
A: 32

Q: And the “Relative MIC” value [5]?
A: 32

Q: What about the “Relative MIC” value [6] of the same compound?
A: 32

Q: What about the “Relative MIC” value [7] of the same compound?
A: 64

Q: What about the “Relative MIC” value [8] of the same compound?
A: 32

Q: What about the “Relative MIC” value [9] of the same compound?
A: 64

Q: And the “Relative MIC” value [10]?
A: 32

Q: What about the “Relative MIC” value [11] of the same compound?
A: 16

Q: What about the “Relative MIC” value [12] of the same compound?
A: 16

Q: What about the “Relative MIC” value [13] of the same compound?
A: 16

Q: What about the “Relative MIC” value [14] of the same compound?
A: 32

Q: With `CNC(C)C1CCC(N)C(OC2C(N)CC(N)C(OC3OCC(C)(O)C(NC)C3O)C2O)O1` (stereo not drawn) [Gentamicin] as the compound, how does the “Relative MIC (log10)” value [1] read?
A: 2.107

Q: And the “Relative MIC (log10)” value [15]?
A: 1.806

Q: And the “Relative MIC (log10)” value (evolved line 6 adapted to the named antibiotic)?
A: 1.806

Q: What about the “Relative MIC (log10)” value [4] of the same compound?
A: 2.107

Q: What about the “Relative MIC (log10)” value [16] of the same compound?
A: 2.408

Q: What about the MIC of evolved line [17] of the same compound?
A: 128 µg/mL

Q: What about the “Relative MIC” value [17] of the same compound?
A: 128

Q: What about the “Relative MIC” value [18] of the same compound?
A: 128

Q: And the MIC of evolved line [19]?
A: 64 µg/mL

Q: And the “Relative MIC” value [19]?
A: 64

Q: What about the “Relative MIC” value [20] of the same compound?
A: 64

Q: What about the MIC of evolved line [21] of the same compound?
A: 128 µg/mL

Q: What about the “Relative MIC” value [21] of the same compound?
A: 128

Q: What about the “Relative MIC” value [22] of the same compound?
A: 128

Q: And the MIC of evolved line [23]?
A: 64 µg/mL

Q: And the “Relative MIC” value [23]?
A: 64

Q: What about the “Relative MIC” value [24] of the same compound?
A: 64

Q: What about the MIC of evolved line [25] of the same compound?
A: 256 µg/mL

Q: And the “Relative MIC” value [25]?
A: 256

Q: And the “Relative MIC” value [26]?
A: 256

Q: And the MIC of evolved line [27]?
A: 128 µg/mL

Q: And the “Relative MIC” value [27]?
A: 128

Q: What about the “Relative MIC” value [28] of the same compound?
A: 128

Q: What about the MIC of evolved line [29] of the same compound?
A: 256 µg/mL

Q: What about the “Relative MIC” value [29] of the same compound?
A: 256

Q: What about the “Relative MIC” value [30] of the same compound?
A: 256
